Experiments:
Format in all cases: cell-based
Toll-like receptor 7 = target: T1, Toll-like receptor 7 (Homo sapiens, UniProt Q9NYK1); assay: Antagonist activity at human TLR7 overexpressed in HEK-Blue cells assessed as inhibition of gardiquimod-induced NFkappaB and AP-1 activation preincubated for 30 mins followed by gardiquimod stimulation measured after 22 hrs by quanti-blue SEAP assay
T1 sequence (Q9NYK1 whole entry): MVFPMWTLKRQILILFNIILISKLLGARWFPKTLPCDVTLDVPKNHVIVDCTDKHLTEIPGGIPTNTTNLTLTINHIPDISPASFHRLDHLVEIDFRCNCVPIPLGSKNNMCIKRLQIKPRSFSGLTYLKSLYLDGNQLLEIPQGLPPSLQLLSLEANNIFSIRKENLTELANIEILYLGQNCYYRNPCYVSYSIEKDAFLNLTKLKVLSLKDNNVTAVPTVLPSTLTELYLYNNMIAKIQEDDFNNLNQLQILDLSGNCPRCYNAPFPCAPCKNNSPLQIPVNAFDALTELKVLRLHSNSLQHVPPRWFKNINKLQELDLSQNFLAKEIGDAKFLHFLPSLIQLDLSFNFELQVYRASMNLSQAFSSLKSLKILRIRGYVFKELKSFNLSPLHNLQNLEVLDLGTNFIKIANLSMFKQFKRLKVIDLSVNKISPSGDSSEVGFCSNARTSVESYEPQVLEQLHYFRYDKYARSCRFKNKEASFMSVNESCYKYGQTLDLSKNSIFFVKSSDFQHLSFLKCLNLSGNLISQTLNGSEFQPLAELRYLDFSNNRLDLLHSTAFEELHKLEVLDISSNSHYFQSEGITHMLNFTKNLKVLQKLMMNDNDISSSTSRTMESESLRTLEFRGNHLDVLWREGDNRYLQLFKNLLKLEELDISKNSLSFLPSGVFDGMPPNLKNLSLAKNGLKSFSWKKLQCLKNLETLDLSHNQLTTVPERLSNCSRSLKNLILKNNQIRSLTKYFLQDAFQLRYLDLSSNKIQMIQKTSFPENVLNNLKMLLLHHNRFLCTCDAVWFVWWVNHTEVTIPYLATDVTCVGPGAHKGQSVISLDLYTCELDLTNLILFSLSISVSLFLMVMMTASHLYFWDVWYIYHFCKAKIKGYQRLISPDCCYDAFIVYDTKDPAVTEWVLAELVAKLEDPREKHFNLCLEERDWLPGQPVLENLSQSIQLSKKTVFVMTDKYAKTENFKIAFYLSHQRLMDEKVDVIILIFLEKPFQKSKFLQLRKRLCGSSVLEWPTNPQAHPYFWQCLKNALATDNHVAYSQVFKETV

Toll-like receptor 9 = target: T2, Toll-like receptor 9 (Homo sapiens, UniProt Q9NR96); assay: Antagonist activity at human TLR9 overexpressed in HEK-Blue cells assessed as inhibition of ODN2006-induced NFkappaB and AP-1 activation preincubated for 30 mins followed by ODN2006 stimulation measured after 22 hrs by quanti-blue SEAP assay
T2 sequence (Q9NR96 whole entry): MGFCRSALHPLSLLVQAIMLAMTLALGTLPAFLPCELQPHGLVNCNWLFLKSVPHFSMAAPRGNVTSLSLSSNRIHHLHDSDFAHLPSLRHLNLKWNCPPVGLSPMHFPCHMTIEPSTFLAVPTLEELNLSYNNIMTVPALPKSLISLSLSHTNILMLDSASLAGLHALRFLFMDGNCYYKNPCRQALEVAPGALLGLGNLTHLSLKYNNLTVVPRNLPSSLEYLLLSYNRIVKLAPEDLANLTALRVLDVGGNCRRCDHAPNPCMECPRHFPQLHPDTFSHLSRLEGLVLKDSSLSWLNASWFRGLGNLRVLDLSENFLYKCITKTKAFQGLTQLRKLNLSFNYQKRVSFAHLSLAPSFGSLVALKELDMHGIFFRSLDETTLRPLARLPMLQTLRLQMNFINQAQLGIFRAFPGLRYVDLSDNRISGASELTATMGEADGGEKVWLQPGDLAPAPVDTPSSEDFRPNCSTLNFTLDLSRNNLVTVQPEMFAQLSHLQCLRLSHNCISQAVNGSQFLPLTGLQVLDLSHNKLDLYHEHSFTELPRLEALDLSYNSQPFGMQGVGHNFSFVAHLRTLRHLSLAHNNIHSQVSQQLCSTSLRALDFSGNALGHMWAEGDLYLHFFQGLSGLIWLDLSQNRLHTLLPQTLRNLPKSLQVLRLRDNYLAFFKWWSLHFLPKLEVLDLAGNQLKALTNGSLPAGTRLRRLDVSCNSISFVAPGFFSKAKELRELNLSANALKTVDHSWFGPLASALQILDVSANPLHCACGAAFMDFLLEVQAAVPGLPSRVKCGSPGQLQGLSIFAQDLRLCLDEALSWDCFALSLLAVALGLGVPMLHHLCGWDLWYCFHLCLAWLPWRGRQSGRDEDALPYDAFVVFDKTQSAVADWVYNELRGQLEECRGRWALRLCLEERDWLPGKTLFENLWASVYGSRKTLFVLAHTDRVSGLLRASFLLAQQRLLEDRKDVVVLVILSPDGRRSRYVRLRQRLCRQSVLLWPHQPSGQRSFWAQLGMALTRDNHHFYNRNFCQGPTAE

[1] = target: T3, Toll-like receptor 9 (Homo sapiens) (UniProt Q9NR96); assay: Antagonist activity at human TLR9 overexpressed in HEK-Blue cells assessed as inhibition of ODN2006-induced NFkappaB and AP-1 activation at 10 uM preincubated for 30 mins followed by ODN2006 stimulation measured after 22 hrs by quanti-blue SEAP assay relative to control
T3 sequence (whole entry): T2 sequence (Q9NR96 whole entry)

Toll-like receptor 3 = target: T4, Toll-like receptor 3 (Homo sapiens, UniProt O15455); assay: Antagonist activity at human TLR3 overexpressed in HEK-Blue cells assessed as inhibition of Poly IC-induced NFkappaB and AP-1 activation preincubated for 30 mins followed by Poly IC stimulation measured after 22 hrs by quanti-blue SEAP assay
T4 sequence (O15455 whole entry): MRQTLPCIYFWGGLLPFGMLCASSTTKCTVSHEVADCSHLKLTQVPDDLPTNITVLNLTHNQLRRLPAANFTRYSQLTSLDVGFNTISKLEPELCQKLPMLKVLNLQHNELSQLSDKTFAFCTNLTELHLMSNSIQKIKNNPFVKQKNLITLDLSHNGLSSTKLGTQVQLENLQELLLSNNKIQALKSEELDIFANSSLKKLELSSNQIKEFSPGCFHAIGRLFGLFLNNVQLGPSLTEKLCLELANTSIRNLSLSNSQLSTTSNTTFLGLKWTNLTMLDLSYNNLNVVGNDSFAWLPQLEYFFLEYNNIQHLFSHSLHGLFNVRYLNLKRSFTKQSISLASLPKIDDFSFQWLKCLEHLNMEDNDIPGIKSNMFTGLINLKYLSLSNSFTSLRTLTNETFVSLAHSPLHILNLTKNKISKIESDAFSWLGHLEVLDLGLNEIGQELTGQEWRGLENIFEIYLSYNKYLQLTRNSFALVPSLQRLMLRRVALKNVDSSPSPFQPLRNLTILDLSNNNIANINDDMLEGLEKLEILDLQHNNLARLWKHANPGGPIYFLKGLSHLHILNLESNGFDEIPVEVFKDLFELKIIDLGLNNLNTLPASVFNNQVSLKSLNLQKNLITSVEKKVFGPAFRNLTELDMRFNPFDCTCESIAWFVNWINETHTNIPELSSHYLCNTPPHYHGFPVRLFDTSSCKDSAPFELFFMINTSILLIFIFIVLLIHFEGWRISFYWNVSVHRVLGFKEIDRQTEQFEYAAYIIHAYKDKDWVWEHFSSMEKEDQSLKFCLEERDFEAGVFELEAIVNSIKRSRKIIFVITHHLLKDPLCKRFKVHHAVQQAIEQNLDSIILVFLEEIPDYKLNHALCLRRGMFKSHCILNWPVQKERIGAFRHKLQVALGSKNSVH

Toll-like receptor 4 = Toll-like receptor 4 (Homo sapiens, UniProt O00206); assay: Antagonist activity at human TLR4 overexpressed in HEK-Blue cells assessed as inhibition of […] induced NFkappaB and AP-1 activation preincubated for 30 mins followed by […] stimulation measured after 22 hrs by quanti-blue SEAP assay
Toll-like receptor 4, sequence (O00206 whole entry): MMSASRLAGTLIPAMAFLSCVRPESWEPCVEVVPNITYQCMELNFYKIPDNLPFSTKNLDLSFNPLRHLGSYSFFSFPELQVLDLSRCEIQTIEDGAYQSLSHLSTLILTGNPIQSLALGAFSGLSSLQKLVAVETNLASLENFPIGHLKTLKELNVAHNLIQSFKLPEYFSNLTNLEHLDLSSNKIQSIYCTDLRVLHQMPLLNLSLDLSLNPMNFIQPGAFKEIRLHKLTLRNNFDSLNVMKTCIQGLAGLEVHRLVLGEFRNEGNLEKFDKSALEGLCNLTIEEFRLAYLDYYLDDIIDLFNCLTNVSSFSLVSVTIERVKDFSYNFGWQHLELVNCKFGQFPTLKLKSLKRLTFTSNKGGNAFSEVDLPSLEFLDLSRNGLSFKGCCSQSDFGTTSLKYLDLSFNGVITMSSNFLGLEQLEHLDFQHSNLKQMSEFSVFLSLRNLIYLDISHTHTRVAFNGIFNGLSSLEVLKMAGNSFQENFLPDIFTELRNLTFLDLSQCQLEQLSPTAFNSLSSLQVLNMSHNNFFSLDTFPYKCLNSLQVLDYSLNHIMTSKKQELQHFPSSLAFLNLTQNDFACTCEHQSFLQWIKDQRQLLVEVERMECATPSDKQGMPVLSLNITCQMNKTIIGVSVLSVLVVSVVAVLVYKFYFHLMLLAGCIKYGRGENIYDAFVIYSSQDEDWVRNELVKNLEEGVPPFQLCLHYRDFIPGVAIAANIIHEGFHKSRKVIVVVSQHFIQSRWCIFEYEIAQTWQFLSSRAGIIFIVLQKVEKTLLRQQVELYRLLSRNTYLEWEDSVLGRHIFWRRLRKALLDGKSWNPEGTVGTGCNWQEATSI

SMILES	IC50 (Toll-like receptor 7) [µM]	IC50 (Toll-like receptor 9) [µM]	other results
CNCCN1CCC(c2ccc3[nH]c(-c4ccccc4C)c(C)c3c2)CC1	> 10	2.14	
COc1ccc(-c2[nH]c3ccc(C4CCN(C5CNC5)CC4)cc3c2C)cc1OC		2.34	
CNCCN1CCC(c2ccc3[nH]c(-c4ccc(C#N)cc4)c(C)c3c2)CC1		0.52	
CNCCN1CCC(c2ccc3[nH]c(-c4ccc(OC)c(OC)c4)c(C#N)c3c2)CC1	> 10		
CNCCN1CCC(c2ccc3[nH]c(-c4ccc(C)cc4)c(C)c3c2)CC1	> 10	5.39	
CNCCN1CCC(c2ccc3[nH]c(-c4ccccc4Cl)c(F)c3c2)CC1		21.7	
COc1ccc(-c2[nH]c3ccc(C4CCN(CC5CCCCN5C)CC4)cc3c2C)cc1OC (stereo not given)	0.85	0.74	
COc1ccc(-c2[nH]c3ccc(C4CCN(Cc5ccncc5)CC4)cc3c2C)cc1OC		3.36	
CCOc1cc(-c2[nH]c3ccc(C4CCN(CCNC)CC4)cc3c2C)ccc1OC(C)C		1.66	
COc1ccc(-c2[nH]c3ccc(C4CCN(C5CCN(C)CC5)CC4)cc3c2C)cc1OC	0.73		
CNCCN1CCC(c2ccc3[nH]c(-c4ccc5c(c4)OCO5)c(C)c3c2)CC1	0.65	1.2	
CCc1c(-c2ccc(OC)c(OC)c2)[nH]c2ccc(C3CCN(CCNC)CC3)cc12	0.13		
CNCCN1CCC(c2ccc3[nH]c(-c4ccc(OC)cc4OC)c(C)c3c2)CC1	> 10	2.33	
COc1ccc(-c2[nH]c3ccc(C4CCN(Cc5nccn5C)CC4)cc3c2C)cc1OC		0.85	
CNCCN1CCC(c2ccc3[nH]c(-c4ccccc4OC)c(F)c3c2)CC1	0.61	23.3	inhibition [1]: < 5%
COc1ccc(-c2[nH]c3ccc(C4CCN(Cc5cncn5C)CC4)cc3c2C)cc1OC	0.92	2.71	

SMILES	IC50 (Toll-like receptor 7) [µM]	IC50 (Toll-like receptor 9) [µM]	other results
CNCCN1CCC(c2ccc3[nH]c(-c4ccc(C(N)=O)cc4)c(C)c3c2)CC1	16.6	0.27	
CNCCN1CCC(c2ccc3[nH]c(-c4ccc(OC)cc4)c(C)c3c2)CC1	5.46	0.5	
CNCCN1CCC(c2ccc3[nH]c(-c4ccc(OC)c(OC)c4)c(CC(F)(F)F)c3c2)CC1	0.07	0.75	
COc1ccc(-c2[nH]c3ccc(C4CCNCC4)cc3c2C)cc1OC		4.85	
CNCCN1CCC(c2ccc3[nH]c(-c4ccccc4C#N)c(C)c3c2)CC1	> 10	0.6	
COc1ccc(-c2[nH]c3ccc(C4CCN(Cc5cnc(C)[nH]5)CC4)cc3c2C)cc1OC	3.49		
CNCCN1CCC(c2ccc3[nH]c(-c4cccc(OC)c4OC)c(C)c3c2)CC1	> 10	2.2	
CNCCN1CCC(c2ccc3[nH]c(-c4cccc(OC)c4)c(C)c3c2)CC1	6.17	1.87	
CNCCN1CCC(c2ccc3[nH]c(-c4cccc(C)c4)c(C)c3c2)CC1	> 10	2.62	
CNCCN1CCC(c2ccc3[nH]c(-c4cccc(C#N)c4)c(C)c3c2)CC1	> 10	0.46	
COc1ccc(-c2[nH]c3ccc(C4CCN(C(C)=O)CC4)cc3c2C)cc1OC	1.31	> 50	
CNCCN1CCC(c2ccc3[nH]c(-c4ccccc4)c(C)c3c2)CC1	> 10	1.8	
CNCCCN1CCC(c2ccc3[nH]c(-c4ccc(OC)c(OC)c4)c(C)c3c2)CC1	0.79	0.55	
CNCCN1CCC(c2ccc3[nH]c(-c4ccc(OC)c(OC)c4)c(Cl)c3c2)CC1		0.43	
CNCCN1CCC(c2ccc3[nH]c(-c4ccc(OC)c(OC)c4)c(C)c3c2)CC1	0.25	0.43	IC50 (Toll-like receptor 3): 2.16 µM; IC50 (Toll-like receptor 4): 15 µM
CNCCN1CCC(c2ccc3[nH]c(-c4ccccc4OC)c(C)c3c2)CC1	> 10	1.1	

— ChEMBL document CHEMBL4619828, “Discovery of Potent and Orally Bioavailable Small Molecule Antagonists of Toll-like Receptors 7/8/9 (TLR7/8/9)” (ACS Med Chem Lett, 2020)
